Assays:
[1] = tested on: human lung cancer NCI-H1581 xenografts; assay: Growth of subcutaneous xenografts of human lung cancer NCI-H1581 in nude mice; type: in vivo; details: for Relative tumor volume RTV (mean ± SD): NCI-H1581, 50 mg/kg orally once a day; for Weight (g, mean ± SD): NCI-H1581 tumor-bearing mice, 50 mg/kg orally once a day
Protocol: The diameter of the subcutaneously implanted tumor in nude mice was measured by a vernier caliper. […] In the compound HuFGFR267 50 mg/kg group, the compound was formulated with 0.5% methylcellulose (MC) to the required concentration before use. The formulation of compound was prepared once a week, and orally administered once a day for 14 days. The positive control drug AZD4547 was diluted to the required concentration with water for injection containing 1% Tween 80 before use. The formulation of AZD4547 was prepared once a week, and orally administered once a day for 14 days. In the solvent control group, an equal amount of water for injection was administrated.

[2] = Pharmacokinetic experiment in rat (IV and PO, plasma LC-MS/MS); details: SD rats
Protocol: (§1) Ponatinib (AP24534) was administered intravenously (IV) and orally (PO) to SD rats. Blood samples were taken at different time points. LC-MS/MS was used to determine the concentration of compound in the plasma of rats after administration of the test compound, and the relevant pharmacokinetic parameters were calculated to examine oral bioavailability and pharmacokinetic properties of the compound in rats.
as §1, with “Compound HuFGFR267” for “Ponatinib (AP24534)”, “intravenously” for “intravenously (IV)”, “orally” for “orally (PO)”

CN1CCN(Cc2ccc(NC(=O)c3ccc(Cl)c(C#Cc4cccnc4N)c3)cc2C(F)(F)F)CC1 [Example 1, 3-(2-aminopyridine-3-ethynyl)-4-chloro-N-(4-((4-methylpiperazin-1-yl)methylene)-3-(trifluoromethyl)phenyl)benzamide]
body weight of tumor-bearing mice (in words) ([1]; NCI-H1581, 50 mg/kg orally once a day for 14 days): no significant change | relative tumor proliferation rate T/C ([1]; NCI-H1581, 50 mg/kg orally once a day for 14 days, 14th day): 3.77% | Relative tumor volume RTV (mean ± SD) ([1]; d0): 1.00 ± 0.00 | Relative tumor volume RTV (mean ± SD) ([1]; d3): 1.28 ± 0.40 | Relative tumor volume RTV (mean ± SD) ([1]; d7): 1.33 ± 0.74 | Relative tumor volume RTV (mean ± SD) ([1]; d10): 2.02 ± 1.10 | Relative tumor volume RTV (mean ± SD) ([1]; d14): 2.16 ± 1.41 | animal deaths during the experiment ([1]; NCI-H1581, each group (HuFGFR267 50 mg/kg, AZD4547 12.5 mg/kg)): no mice died | Weight (g, mean ± SD) ([1]; d0): 18.1 ± 1.2 g | Weight (g, mean ± SD) ([1]; d3): 19.2 ± 1.0 g | Weight (g, mean ± SD) ([1]; d7): 19.7 ± 1.0 g | Weight (g, mean ± SD) ([1]; d10): 20.2 ± 1.2 g | Weight (g, mean ± SD) ([1]; d14): 20.0 ± 1.3 g | AUC0-t ([2]; IV (2 mg/kg)): 2.72 µg·h/mL | CLplasma ([2]; IV (2 mg/kg)): 0.714 L/h/kg | T1/2 ([2]; IV (2 mg/kg)): 6.00 h | Vdss ([2]; IV (2 mg/kg)): 4.88 L/kg | AUC0-t ([2]; PO (10 mg/kg)): 4.961 µg·h/mL | Cmax ([2]; PO (10 mg/kg)): 0.346 µg/mL | T1/2 ([2]; PO (10 mg/kg)): 10.5 h | Tmax ([2]; PO (10 mg/kg)): 5.33 h | F ([2]; PO (10 mg/kg) vs IV (2 mg/kg)): 36.5%
